Laboratory results published in patent publication US20240415819A1, “MACROCYCLIC COMPOUNDS AS PROTEASOME SUBUNIT BETA TYPE-5 INHIBITORS” (Lead Discovery Center GmbH, priority 2021, published 2024).

Key:
Karpas cells = assay: Glo assay of Karpas cells (Table 3; ProteasomeGlo plating scheme); type: cell-based; conditions: read-out: Pglo Karpas
How it was run: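 After acoustic compound transfer, plates incubate 105 min (37° C., 5% CO2). Proteasome-Glo reagent containing Suc-LLVY-Glo substrate is added, plates are shaken, then luminescence is measured after 10-15 min to derive IC50 [nM]. Staurosporine and DMSO serve as controls.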

[1] = test system: B-cells isolated from PBMC's; assay: Chymotrypsin-like ProteasomeGlo assay in B-cells isolated from PBMCs; type: cell-based, human; conditions: Homo sapiens; B-cells isolated from PBMC's; read-out: Pglo B-Cell
How it was run: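 Human B-cells were negatively isolated from buffy-coat PBMCs by density gradient, RBC lysis and Miltenyi magnetic separation. Cells were plated and compounds added by acoustic transfer after 1:100 dilution, with DMSO controls and medium-only wells. Chymotrypsin-like proteasome activity was read by luminescent ProteasomeGlo to derive IC50.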

IC50 (Karpas cells): < 100 nM
Compound: CCC(C(=O)N[C@H]1CC(=O)N2CCCC(CCOc3ccc(C)c(c3)CNC(=O)[C@H](CCc3ccccc3)NC1=O)C2)c1ccc(OC)c(OC)c1 (stereo partly drawn) [Compound 64, 2-(3,4-dimethoxyphenyl)-N-((9S,12S)-5^4-methyl-8,11,14-trioxo-9-phenethyl-4-oxa-7,10-diaza-1(3,1)-piperidina-5(1,3)-benzenacyclotetradecaphane-12-yl)butanamide]
IC50 [1]: < 100 nM
